Experimental data from patent publication US20080139449A1 (priority 2005, published 2008).

Columns and labels:
FPPS [1] = target: T1, FPPS (Homo sapiens, UniProt P14324)
Target sequence in this assay (P14324 72-419): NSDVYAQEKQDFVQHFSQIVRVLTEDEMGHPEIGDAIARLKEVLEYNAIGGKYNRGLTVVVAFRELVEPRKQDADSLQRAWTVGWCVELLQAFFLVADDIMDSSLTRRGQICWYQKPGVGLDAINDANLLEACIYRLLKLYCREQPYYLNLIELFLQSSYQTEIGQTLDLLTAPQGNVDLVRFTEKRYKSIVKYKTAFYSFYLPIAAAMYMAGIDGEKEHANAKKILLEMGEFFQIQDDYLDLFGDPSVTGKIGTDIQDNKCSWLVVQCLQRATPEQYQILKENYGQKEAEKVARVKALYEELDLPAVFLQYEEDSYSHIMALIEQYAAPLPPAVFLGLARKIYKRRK

FPPS [2] = target: T1, FPPS; settings: with respect to allylic substrates and IPP; cited from earlier work
Target sequence in this assay (P14324 whole entry): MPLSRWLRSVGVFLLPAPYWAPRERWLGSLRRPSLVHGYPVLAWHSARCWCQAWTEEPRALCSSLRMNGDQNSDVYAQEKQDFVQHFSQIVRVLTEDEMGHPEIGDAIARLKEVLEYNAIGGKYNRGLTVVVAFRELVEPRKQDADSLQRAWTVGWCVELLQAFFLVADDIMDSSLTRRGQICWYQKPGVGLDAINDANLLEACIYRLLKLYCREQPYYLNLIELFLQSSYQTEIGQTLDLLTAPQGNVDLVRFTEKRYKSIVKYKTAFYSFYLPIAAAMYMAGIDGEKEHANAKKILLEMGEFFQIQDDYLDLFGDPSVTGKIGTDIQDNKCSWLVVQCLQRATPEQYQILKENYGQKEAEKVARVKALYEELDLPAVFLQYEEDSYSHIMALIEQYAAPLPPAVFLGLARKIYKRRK

## C=C(C)CCOP(=O)(O)OP(=O)(O)O [IPP, isopentenyl diphosphate]
FPPS [1]; IPP 400 μM added to FPPS/zoledronate/Mg2+ sample
  binding in the presence of zoledronate/Mg2+ (NMR): binds to FPPS even in the presence of zoledronate

## NCCC(O)(P(=O)(O)O)P(=O)(O)O [pamidronate]
FPPS [1]; FPPS dimer 60 μM, pamidronate 270 μM, Mg2+ 900 μM
  chemical shift changes in 15N,1H-TROSY spectrum upon ligand addition: almost all of the non-overlapping resonances experience chemical shift changes

## NCCCC(O)(P(=O)(O)O)P(=O)(O)O [alendronate]
FPPS [2]
  mode of FPPS inhibition: competitive with respect to allylic substrates but not IPP
